Columns and labels:
Aurora kinase A = biological target: T1, Aurora kinase A (Homo sapiens, UniProt O14965); assay: Aurora A Enzyme Inhibition Assay
T1 sequence (O14965 whole entry): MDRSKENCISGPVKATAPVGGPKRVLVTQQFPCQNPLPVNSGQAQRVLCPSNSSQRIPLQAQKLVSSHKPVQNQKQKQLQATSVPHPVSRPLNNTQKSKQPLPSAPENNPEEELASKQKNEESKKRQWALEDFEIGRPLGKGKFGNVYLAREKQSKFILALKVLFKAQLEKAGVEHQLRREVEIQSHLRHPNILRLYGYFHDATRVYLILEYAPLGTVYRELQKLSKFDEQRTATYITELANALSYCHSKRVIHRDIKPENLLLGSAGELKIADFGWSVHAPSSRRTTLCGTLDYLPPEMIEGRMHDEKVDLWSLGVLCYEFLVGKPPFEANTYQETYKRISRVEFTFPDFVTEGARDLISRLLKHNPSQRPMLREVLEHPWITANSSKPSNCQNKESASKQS
Procedure: The compound was dissolved in 100% DMSO at the concentration of 10 mM. The Aurora A protein was purchased from Carna (05-101). 10 μL per well of 2.5×Aurora A protein was added to assay plate containing the test compound, centrifuged at 1000 rpm for 1 minute, and then incubated at 25° C. for 10 minutes. Peptide 21 was purchased from GL Biochem (116370) and ATP was purchased from Promega (V9102). The two were added 15 μL per well mixture of 1.67× peptide 21 (final conc. is 3 μM) and ATP (final conc. is 14.58 μM), centrifuged at 1000 rpm for 1 minute, then incubated at 25° C. for 40 minutes. Then added 30 μL of stop buffer (100 mM HEPES pH7.5, 0.015% Brij-35, 0.2% Coating Reagent 3, 50 mM EDTA) to the assay plate and centrifuged at 1000 rpm for 1 minute. the product was determined.

[1] = biological target: Mitogen-activated protein kinase kinase kinase kinase 1 (Homo sapiens, UniProt Q92918); assay: HPK1 Enzyme Inhibition Assay
Chain of Mitogen-activated protein kinase kinase kinase kinase 1 (Q92918 whole entry): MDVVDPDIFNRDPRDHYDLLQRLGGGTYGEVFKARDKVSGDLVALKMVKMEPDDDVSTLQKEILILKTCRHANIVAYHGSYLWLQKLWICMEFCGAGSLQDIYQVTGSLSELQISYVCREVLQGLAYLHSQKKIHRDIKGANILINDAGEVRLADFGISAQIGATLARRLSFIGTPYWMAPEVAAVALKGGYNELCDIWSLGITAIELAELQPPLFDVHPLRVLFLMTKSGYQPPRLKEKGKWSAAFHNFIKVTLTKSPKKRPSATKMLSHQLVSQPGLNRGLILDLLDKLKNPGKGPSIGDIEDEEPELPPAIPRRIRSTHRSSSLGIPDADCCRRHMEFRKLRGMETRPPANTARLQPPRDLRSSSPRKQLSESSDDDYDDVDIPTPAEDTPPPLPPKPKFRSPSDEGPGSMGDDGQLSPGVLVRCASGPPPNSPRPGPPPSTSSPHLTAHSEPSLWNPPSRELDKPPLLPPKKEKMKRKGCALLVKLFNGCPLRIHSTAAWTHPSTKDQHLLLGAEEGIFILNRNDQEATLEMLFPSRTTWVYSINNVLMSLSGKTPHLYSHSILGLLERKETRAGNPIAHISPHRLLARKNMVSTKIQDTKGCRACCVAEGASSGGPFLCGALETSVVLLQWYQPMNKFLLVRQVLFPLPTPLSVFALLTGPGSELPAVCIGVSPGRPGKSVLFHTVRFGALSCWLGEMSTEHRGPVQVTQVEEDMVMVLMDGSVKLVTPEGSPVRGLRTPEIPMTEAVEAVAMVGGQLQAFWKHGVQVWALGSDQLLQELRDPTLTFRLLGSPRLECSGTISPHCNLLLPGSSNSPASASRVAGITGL
Procedure: The compound was dissolved in 100% DMSO at the concentration of 10 mM. The HPK1 protein was purchased from Signal Chem (M23-11G-10). 2.5 μL per well of 2×HPK1 protein was added to assay plate containing the test compound, centrifuged at 1500 rpm for 1 minute, and then incubated at 25° C. for 60 minutes. MBP protein was purchased from Signal Chem (M42-51N) and ATP was purchased from Promega (V9102). The two were added 2.5 μL per well mixture of 2×MBP (0.2 ug/ul) and ATP (20 μM), centrifuged at 1500 rpm for 1 minute, then incubated at 25° C. for 60 minutes. Then added 5 μL of ADP-Glo from Promega (V9102) to the assay plate and depleted the unconsumed ATP for 60 minutes. Then centrifuged at 1500 rpm for 1 minute and incubated at 25° C. for 60 minutes. Finally, 10 μL of the kinase assay reagent from Promega (V9102) was added to the assay plate to convert ADP to ATP, centrifuged at 1500 rpm for 1 minute, incubate at 25° C. for 40 minutes. After 40 minutes incubation, the […] was determined.

SMILES | IC50 (Aurora kinase A) | IC50 [1]
CCc1c[nH]c2ncc(-c3cccc(N4CCCN(CCN5CC(c6ccc7c(c6)C(=O)N(C6CCC(=O)NC6=O)C7)C5)C4=O)c3)c(Cl)c12 (centres undefined) [US20250368640, Example 1] | 14.3 nM | 0.76 nM
CCc1c[nH]c2ncc(-c3cccc(N4CCCN(CCN5CC(c6ccc7c(c6)CN(C6CCC(=O)NC6=O)C7=O)C5)C4=O)c3)c(Cl)c12 (centres undefined) | 10.1 nM | 1.1 nM
